Data reported in US5789434A, “Derivatives of substituted 4-biarylbutyric acid as matrix metalloprotease inhibitors” (priority 1995, dated 1998).

Key:
MMP-9 [1] = target: T1, MMP-9 (Homo sapiens, UniProt P14780); assay: Automated MMP Profiling Assay, MMP-9 fluorogenic; format: biochemical; settings: 96-well automated, P218
T1 construct: from tissue; host or cells: human polymorphonuclear leukocytes (PMN) from whole blood (New York Blood Center), PMA-stimulated supernatant

MMP-2 [2] = target: T2, MMP-2 (Homo sapiens, UniProt P08253); assay: Automated MMP Profiling Assay, MMP-2 fluorogenic; format: biochemical; settings: 96-well automated, P218; read-out: MMP-2 Fluorogenic IC50 (profiling)
T2 sequence (P08253 110-660): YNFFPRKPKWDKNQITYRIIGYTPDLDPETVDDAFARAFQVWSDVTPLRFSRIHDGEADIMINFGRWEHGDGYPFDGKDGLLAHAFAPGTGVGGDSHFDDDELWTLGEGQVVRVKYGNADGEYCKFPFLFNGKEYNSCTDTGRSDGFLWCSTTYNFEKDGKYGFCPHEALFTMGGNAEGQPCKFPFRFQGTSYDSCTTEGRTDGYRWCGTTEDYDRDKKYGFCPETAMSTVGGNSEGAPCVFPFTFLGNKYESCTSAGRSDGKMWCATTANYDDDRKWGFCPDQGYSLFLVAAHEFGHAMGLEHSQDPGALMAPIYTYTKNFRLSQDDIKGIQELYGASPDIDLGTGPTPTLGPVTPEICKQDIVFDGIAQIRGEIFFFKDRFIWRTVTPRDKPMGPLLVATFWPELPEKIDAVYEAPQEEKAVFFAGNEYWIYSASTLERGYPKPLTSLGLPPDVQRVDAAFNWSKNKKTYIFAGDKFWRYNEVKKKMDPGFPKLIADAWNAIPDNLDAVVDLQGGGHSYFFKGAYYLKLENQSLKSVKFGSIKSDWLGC

MMP-3 [3] = target: T3, MMP-3 (Homo sapiens, UniProt P08254); assay: Automated MMP Profiling Assay, MMP-3 fluorogenic; format: biochemical; settings: 96-well automated, P218
T3 construct: Truncated Prostromelysin-257 was expressed in a soluble form in E.coli; made in house; host or cells: E. coli
T3 sequence (P08254 100-274 limits assumed): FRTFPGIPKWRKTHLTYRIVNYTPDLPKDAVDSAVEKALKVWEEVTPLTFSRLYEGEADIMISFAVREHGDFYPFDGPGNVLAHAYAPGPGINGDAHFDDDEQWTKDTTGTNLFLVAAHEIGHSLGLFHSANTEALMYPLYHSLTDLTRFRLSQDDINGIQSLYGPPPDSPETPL
From the text: This assay with each invention compound was run with the three enzymes MMP-3, MMP-9 and MMP-2 in parallel as adapted for a 96-well microtitre plate using a Hamilton A® workstation.

Femoral Lesion = assay: Inhibition of Cartilage Lesions in a Guinea Pig Model of Osteoarthritis; format: in vivo; settings: 15 mg/kg oral gavage daily, 33 days, vs vehicle
Procedure: Pathol. 1987 24, 444-448. Seven of the invention compounds were dissolved at 15 mg/ml in a vehicle of 10 mg/ml Tween 80, 190 mg/ml PEG and 0.44 mg/ml ethanolamine. This concentrate was diluted 1:1 with water before dosing (final concentration 7.5 mg/ml). On the 5th day before surgery, each animal received either a test compound plus vehicle or vehicle only administered by oral gavage each day at 15 mg/kg (2 ml/kg) up to surgery and then for four weeks post surgery (total 33 days of dosing). At the beginning of dosing and twice weekly thereafter the animals were weighed and the dose of the respective compounds or vehicles were calculated and adjusted if necessary. At the conclusion of the study the animals were euthanized by CO2 asphyxiation and their stifles removed, partially dissected and placed in 10% neutral buffered formalin. The extent of lesion development on the femoral head was measured by computer assisted surface area analysis.

MMP-2 [4] = target: T2, MMP-2; assay: Secondary P218 Quenched fluorescence Assay for MMP-2 Inhibition; format: biochemical; settings: P218 substrate, 0.2 nM enzyme; x (n) = average of n determinations; read-out: MMP-2 Fluorogenic IC50
MMP-9 [5] = target: T1, MMP-9; assay: Thiopeptilide MMP-9 Inhibition Assay; format: biochemical
MMP-3 [6] = target: T3, MMP-3; assay: Secondary P218 Quenched fluorescence Assay for MMP-3 Inhibition; format: biochemical; settings: P218 substrate, pH 6.5, 25° C.; x (n) = average of n determinations; read-out: MMP-3 Fluorogenic IC50
Procedure: Truncated Prostromelysin-257 was expressed in a soluble form in E.coli as described by Marcy et al., Biochemistry, 30, 6476-6483, 1991. Soluble truncated prostromelysin was purified by a modification of the monoclonal antibody affinity chromatography method described by Housley et al., J. Biol. Chem., 268, 4481-87, 1993.
The assay is run continuously in a 3.0 ml cuvette using a Perkin-Elmer LS 50 B Spectrofluorimeter at 25° C. in a final volume of 2.0 mls. P218 substrate (10 mM) in 100% DMSO is diluted to a final concentration of 2.0 micromolar (μM) into assay buffer: 50 mM MES, pH 6.5 containing 150 mM NaCl, 10 mM CaCl2, 0.005% Brij-35, and 1%(v/v) DMSO. Test compounds(10 mM) in DMSO are diluted in assay buffer at an initial concentration of 10 to 100 micromolar. […] The reaction is initiated by the addition of recombinant stromelysin (MMP-3) at a final concentration of 1.0 nM. Upon peptide cleavage, the fluorescent MCA group was detected using an excitation wavelength of 328 nanometers and an emission wavelength of 393 nanometers.

MMP-3 [7] = target: T3, MMP-3; assay: Primary Thiopeptilide MMP-3 Inhibition Assay; format: biochemical; settings: pH 6.5; 13 nM stromelysin; x (n) = average of n determinations; read-out: MMP-3 Thiopep. IC50
Procedure: Enzyme: recombinant stromelysin expressed in E.coli and purified as described above. […] The protocols for the assay of compounds as stromelysin inhibitors was the same as that used for MMP-9 except that the assay buffer was 50 mM MES, pH 6.5 containing 150 mM NaCl, 10 mM CaCl2, 0.005% Brij, and 1% DMSO.

MMP = MMP inhibitory activity, comparison in words; format: biochemical
human colon tumor = settings: intraperitoneally; cited from earlier work
[8] = test system: human ovarian carcinoma xenografts; settings: mouse, in vivo; cited from earlier work
inflammation = settings: R. G. Child et al. 1977; cited from earlier work

T1 sequence (P14780 107-707 limits assumed): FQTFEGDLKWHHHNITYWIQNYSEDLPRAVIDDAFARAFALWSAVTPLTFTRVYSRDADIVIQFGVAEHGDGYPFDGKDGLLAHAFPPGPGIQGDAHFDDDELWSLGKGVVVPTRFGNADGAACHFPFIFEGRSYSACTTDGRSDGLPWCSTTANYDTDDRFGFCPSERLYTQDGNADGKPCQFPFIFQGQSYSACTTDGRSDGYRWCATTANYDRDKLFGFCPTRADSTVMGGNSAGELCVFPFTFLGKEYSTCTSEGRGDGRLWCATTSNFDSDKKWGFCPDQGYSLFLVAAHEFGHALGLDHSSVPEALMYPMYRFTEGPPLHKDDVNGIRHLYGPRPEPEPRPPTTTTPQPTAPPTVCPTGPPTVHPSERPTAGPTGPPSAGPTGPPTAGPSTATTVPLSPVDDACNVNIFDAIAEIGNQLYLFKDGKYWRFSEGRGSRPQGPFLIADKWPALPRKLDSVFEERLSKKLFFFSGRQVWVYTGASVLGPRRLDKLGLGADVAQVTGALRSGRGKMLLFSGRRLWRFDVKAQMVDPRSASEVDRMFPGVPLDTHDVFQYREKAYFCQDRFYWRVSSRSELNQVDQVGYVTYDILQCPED

Row | Compound | IC50 (MMP-9 [1]) | IC50 (MMP-2 [2]) | IC50 (MMP-3 [3]) | % Inhibition of Femoral Lesion Surface Area (Femoral Lesion) | MMP inhibitory activity (in words) (MMP) | further results
1 | O=C(C[C@H](CCCc1ccccc1)C(=O)O)c1ccc(-c2ccc(Cl)cc2)cc1 [Example 116, 4-[4-(4-chlorophenyl)phenyl]-4-oxo-2S-(3-phenylpropyl)butanoic acid] | 185 nM | 38 nM | 137 nM | 0% | – | –
2 | O=C(C[C@H](CCCc1ccccc1)C(=O)O)c1ccc(-c2ccc(OCc3ccccc3)cc2)cc1 [Example 100, 4-[4-(4-benzyloxyphenyl)phenyl]-4-oxo-2S-(3-phenylpropyl)butanoic acid] | 3220 nM | 14 nM | 17 nM | 37.8% | – | –
3 | O=C(C[C@H](CSc1ccccc1)C(=O)O)c1ccc(-c2ccc(Cl)cc2)cc1 [Example 197, 4-[4-(4-chlorophenyl)phenyl]-4-oxo-2S-(phenylthiomethyl)butanoic acid] | – | 22 nM | – | 18% | – | IC50 (MMP-2 [4]): 26 nM; IC50 (MMP-9 [5]; pH 6.5, x (n) = average of n determinations, read-out: MMP-9: Thiopep. IC50): 197 nM
4 | O=C(CC(CCCc1ccccc1)C(=O)O)c1ccc(-c2ccccc2)cc1 (stereo not shown) [Example 135] | – | – | – | – | low potency | IC50 (MMP-3 [6]): 2800 nM; IC50 (MMP-3 [7]): 2800 nM
5 | O=C(O)[C@@H]1[C@@H](CN2C(=O)c3ccccc3C2=O)CC[C@H]1C(=O)c1ccc(-c2ccc(Cl)cc2)cc1 [Example 362, (1R,2S,5R)-trans-5-[4-(4-chlorophenyl)phenylcarbonyl]-trans-2-phthalimidomethylcyclopentanecarboxylic acid] | 100 nM | 183 nM | 431 nM | – | less active | –
6 | O=C(O)[C@@H]1[C@@H](C(=O)c2ccc(-c3ccc(Cl)cc3)cc2)CC[C@H]1Sc1ccccc1 [Example 296, (1S,2R,5S)-trans-5-[4-(4-chlorophenyl)phenylcarbonyl]-trans-2-phenylthiocyclopentanecarboxylic acid] | 111 nM | 6.4 nM | 44 nM | 31% | – | –
7 | CNC(=O)[C@H](Cc1ccccc1)NC(=O)[C@H](CC(C)C)[C@H](CSc1cccs1)C(=O)NO [batimastat] | – | – | – | – | – | human colon tumor growth and spread (human colon tumor): inhibits human colon tumor growth and spread; survival of mice bearing human ovarian carcinoma xenografts [8]: prolongs the survival
8 | COC(=O)c1ccccc1S[C@H]1CC[C@H](C(=O)c2ccc(-c3ccc(Cl)cc3)cc2)[C@H]1C(=O)O [Example 299, (1S,2S,5S)-trans-5-[4-(4-chlorophenyl)phenylcarbonyl]-cis-2-(2-methoxycarbonylphenylthio)cyclopentanecarboxylic acid] | 531 nM | 52 nM | 58 nM | 28% | – | –
9 | O=C(CC(C(=O)O)c1ccccc1)c1ccc(-c2ccccc2)cc1 (stereo not shown) [XLIV] | – | – | – | – | – | anti-inflammatory activity (literature) (inflammation): inactive
10 | O=C(C[C@H](CCN1C(=O)c2ccccc2C1=O)C(=O)O)c1ccc(-c2ccc(Cl)cc2)cc1 [Example 268, 4-[4-(4-chlorophenyl)phenyl]-4-oxo-2S-(2-phthalimidoethyl)butanoic acid] | 1.15 nM | 0.91 nM | 5.73 nM | 53% | most active | –
11 | O=C(O)CC(C(=O)c1ccc(-c2ccccc2)cc1)c1ccccc1 (stereo not shown) [LXXVII] | – | – | – | – | – | anti-inflammatory activity (literature) (inflammation): inactive
12 | O=C(C[C@@H](CCN1C(=O)c2ccccc2C1=O)C(=O)O)c1ccc(-c2ccc(Cl)cc2)cc1 [Example 269, 4-[4-(4-chlorophenyl)phenyl]-4-oxo-2R-(2-phthalimidoethyl)butanoic acid] | 197 nM | 165 nM | 1030 nM | – | less active | –
13 | CCN(CC)C(=O)c1cccc(CC[C@@H](CC(=O)c2ccc(-c3ccc(Cl)cc3)cc2)C(=O)O)c1 [Example 145, 4-[4-(4-chlorophenyl)phenyl]-4-oxo-2S-[2-(3-N,N-diethylcarbamoyl)phenyl]butanoic acid] | 19 nM | 2.1 nM | 7.5 nM | 46.4% | – | –
14 | O=C(O)CCC(=O)c1ccc(-c2ccccc2)cc1 [fenbufen, 3-biphenoylpropanoic acid, reference compound] | – | – | – | – | Only minor activity, at best | IC50 (MMP-2 [4]): 1000 nM; inhibition at 5 µM (MMP-9 [5]; read-out: MMP-9: Thiopep. % inhibition): 2%
15 | CC(CC(=O)c1ccc(-c2ccccc2)cc1)C(=O)O (stereo not shown) [XLVIII] | – | – | – | – | – | anti-inflammatory activity (literature) (inflammation): inactive
16 | CCCCCOc1ccc(-c2ccc(C(=O)C[C@H](CCCc3ccccc3)C(=O)O)cc2)cc1 [Example 86, 4-[4-(4-pentyloxyphenyl)phenyl]-4-oxo-2S-(3-phenylpropyl)butanoic acid] | 442 nM | 12.5 nM | 51 nM | 0% | – | –
